We go through 9 compounds from US20250288704A1, “CXCR4-LIGANDS FOR DIAGNOSTIC AND THERAPEUTIC USE AND PRECURSORS THEREOF” (priority 2021, published 2025).

The nature of data set [1]: Octanol/PBS partition coefficient (logD7.4). In kind it is physicochemical. Conditions: n-octanol/PBS pH 7.4, radiolabeled compound. The protocol:
The tubes were vortexed at maximum speed for 3 min to ensure equilibrium before centrifugation at 15.000×g for 5 min on a Biofuge 15 from Heraeus Holding GmbH (Osterode, Germany). An aliquot of 100 μL of each fraction was measured in the γ-counter and the log D7.4 calculated as follows: […]

Data set [2] relates to CXCR4-expressing Chem_1 cells. Kind of data set: Determination of internalization, dual tracer with 125I-Fc-131. The note with it: for Cell-bound [%] / Internalized [%]: of total cellular activity; for Internalization [% Fc-131] 2 h: 177Lu-labeled. The format is cell-based. As to the method: CXCR4-expressing Chem_1 cells were grown in DMEM-F12 medium supplemented with 10 vol % FBS, 1 vol % NEA, 1 vol % PenStrep and 1 vol % HEPES (1.00 M). Cells were maintained in a 5% CO2 atmosphere at 37° C.
For in vitro experiments, cells were harvested by removal of the medium and incubation of the cells with trypsine/EDTA (0.05%/0.02%; w/v) for 30 in at 37° C.
Each well (n=3 for every time point) was either treated with 25 μL DMEM-F12 (+5 wt % BSA) or 25 μL of an AMD3100 stock (1 mM in H2O) for blockage of the receptors.
The experiment was stopped by placing the well-plate on ice and removing the supernatant. The cells were washed with 250 μL cold HBSS and the both fractions for each well combined, comprising the amount of unbound radioligand.
The supernatant was removed, the cells washed with cold HBSS and the respective fractions combined to obtain the amount of surface-bound radioligand.
The cells were then incubated with 300 μL NaOH (1.00 M in H2O) for at least 30 at r.t. before the supernatant was removed. The well was washed with another 300 μL NaOH and the fractions combined that contain the amount of internalized radioligand.
The three different fractions were subjected to activity measurement in the γ-counter, measuring the activity of the radionuclide used for the labeling of the peptide under investigation first. […] Data was corrected for non-specific internalization and referred to the specific internalization of the standard ligand

Starred links: 1 amine or outer side, 2 acyl side, 3 side chain; linkers in the order of their positions; H or OH if unused. Positions of bridges follow the written chain, without caps; N, C: chain ends. Non-standard residues stand in square brackets, D forms with d. Residues, ends and D or L forms follow the SMILES beside them. Groups on a side chain read outwards from the residue. Chains are numbered I, II in the order given. *: point of attachment. X7 = O=C(O)CN1CCN(CC(=O)O)CCN([C@H](CCC(=O)*)C(=O)O)CCN(CC(=O)O)CC1; Benzoyl(4-SiFtBu2) = CC(C)(C)[Si](F)(c1ccc(C(=O)*)cc1)C(C)(C)C; DOTA = O=C(O)CN1CCN(CC(=O)O)CCN(CC(=O)*)CCN(CC(=O)O)CC1; d(γGlu) = O=C(O)[C@@H](CCC(=O)[*:2])N[*:1]; dTyr(3-I) = N[C@H](Cc1ccc(O)c(I)c1)C(=O)O; 2Nal = N[C@@H](Cc1ccc2ccccc2c1)C(=O)O; dCit = NC(=O)NCCC[C@@H](N)C(=O)O; dNMeOrn = CN[C@H](CCCN)C(=O)O; 4Abz = Nc1ccc(C(=O)O)cc1; dDap = NC[C@@H](N)C(=O)O; CO = O=C([*:1])[*:2]

`C[C@@H](NC(=O)[C@@H](CCCNC(=N)N)NC(=O)[C@@H](CN)NC(=O)CN1CCN(CC(=O)O)CCN(CC(=O)O)CCN(CC(=O)O)CC1)C(=O)Nc1ccc(C(=O)NCCC[C@@H]2C(=O)N[C@@H](CCCNC(=N)N)C(=O)N[C@@H](Cc3ccc4ccccc4c3)C(=O)NCC(=O)N[C@H](Cc3ccc(O)cc3)C(=O)N2C)cc1` [CXCR4-DOTA-3 [Lu]] (cyclo([dY][dNMeOrn]([4Abz-dA-dR-dDap-DOTA])R[2Nal]G)): the logD7.4 in data set [1] was −3.35 ± 0.19 (6). In addition, the “Internalized in relation to 125I-Fc-131 [%]” value (from here on “Internalized in relation … [%]”) is reported as 180 ± 32.6% in data set [2] (15 min), 259 ± 23.0% in data set [2] (30 min), 289 ± 22.4% in data set [2] (60 min) and 366 ± 69.5% in data set [2] (120 min). Besides, the “Cell-bound [%]” value in data set [2] (15 min) is 6.46 ± 1.07%; in data set [2] (30 min), 9.88 ± 0.54%; in data set [2] (60 min), 13.4 ± 0.84%; in data set [2] (120 min), 17.1 ± 2.69%. Moreover, the “Internalized [%]” value is reported as 15.2 ± 0.99% in data set [2] (15 min), 22.2 ± 0.78% in data set [2] (30 min), 33.4 ± 0.87% in data set [2] (60 min) and 38.4 ± 1.78% in data set [2] (120 min). Further, the “Internalization [% Fc-131] 2 h” value in data set [2] was 366 % Fc-131.

As for `C[C@@H](NC(=O)[C@@H](CCCNC(=N)N)NC(=O)[C@@H](CN)NC(=O)CN1CCN(CC(=O)O)CCN(CC(=O)O)CCN(CC(=O)O)CC1)C(=O)Nc1ccc(C(=O)NCCC[C@@H]2C(=O)N[C@@H](CCCNC(=N)N)C(=O)N[C@@H](Cc3ccc4ccccc4c3)C(=O)NCC(=O)N[C@H](Cc3ccc(O)c(I)c3)C(=O)N2C)cc1` [CXCR4-DOTA-4 [Lu]] (cyclo([dTyr(3-I)][dNMeOrn]([4Abz-dA-dR-dDap-DOTA])R[2Nal]G)), in data set [1], the logD7.4 is recorded as −2.89 ± 0.10 (6). Besides, the “Internalized in relation … [%]” value in data set [2] (15 min) is 381 ± 16.2%; in data set [2] (30 min) it was 588 ± 34.1%; in data set [2] (60 min) it was 685 ± 50.1%; in data set [2] (120 min) it was 675 ± 47.4%. The “Cell-bound [%]” value in data set [2] (15 min) is 16.0 ± 0.58%; in data set [2] (30 min), 24.6 ± 1.38%; in data set [2] (60 min), 32.4 ± 0.60%; in data set [2] (120 min) it was 37.2 ± 2.16%. In addition, the “Internalized [%]” value stood at 20.7 ± 0.59% in data set [2] (15 min), 30.6 ± 1.56% in data set [2] (30 min), 39.3 ± 0.52% in data set [2] (60 min) and 53.23 ± 1.06% in data set [2] (120 min). Also, the “Internalization [% Fc-131] 2 h” value in data set [2] worked out at 675 % Fc-131.

On to `C[C@@H](NC(=O)[C@@H](CCCNC(N)=O)NC(=O)[C@@H](CN)NC(=O)CN1CCN(CC(=O)O)CCN(CC(=O)O)CCN(CC(=O)O)CC1)C(=O)Nc1ccc(C(=O)NCCC[C@@H]2C(=O)N[C@@H](CCCNC(=N)N)C(=O)N[C@@H](Cc3ccc4ccccc4c3)C(=O)NCC(=O)N[C@H](Cc3ccc(O)cc3)C(=O)N2C)cc1` [CXCR4-DOTA-5 [Lu]] (cyclo([dY][dNMeOrn]([4Abz-dA-dCit-dDap-DOTA])R[2Nal]G)), for which the logD7.4 in data set [1] is listed as −3.58 ± 0.08 (8). Besides, the “Internalized in relation … [%]” value amounted to 97.3 ± 8.78% in data set [2] (15 min), 151 ± 4.51% in data set [2] (30 min), 151 ± 15.9% in data set [2] (60 min) and 190 ± 13.0% in data set [2] (120 min). The “Cell-bound [%]” value in data set [2] (15 min) was 3.47 ± 0.46%; in data set [2] (30 min) it was 4.66 ± 0.45%; in data set [2] (60 min), 5.21 ± 0.48%; in data set [2] (120 min) it was 3.94 ± 0.45%. Further, the “Internalized [%]” value in data set [2] (15 min) came to 3.52 ± 0.31%; in data set [2] (30 min), 5.80 ± 0.14%; in data set [2] (60 min), 6.94 ± 0.59%; in data set [2] (120 min), 9.65 ± 0.16%. The “Internalization [% Fc-131] 2 h” value in data set [2] is reported as 190 % Fc-131.

`C[C@@H](NC(=O)[C@@H](CCCNC(=N)N)NC(=O)[C@@H](CNC(=O)c1ccc([Si](F)(C(C)(C)C)C(C)(C)C)cc1)NC(=O)CC[C@H](C(=O)O)N1CCN(CC(=O)O)CCN(CC(=O)O)CCN(CC(=O)O)CC1)C(=O)Nc1ccc(C(=O)NCCC[C@@H]2C(=O)N[C@@H](CCCNC(=N)N)C(=O)N[C@@H](Cc3ccc4ccccc4c3)C(=O)NCC(=O)N[C@H](Cc3ccc(O)cc3)C(=O)N2C)cc1` [CXCR4-SiFA-1 [Ga]]: in data set [1], the logD7.4 was 0.66 ± 0.01 (8).

Turning to `C[C@@H](NC(=O)[C@@H](CCCNC(=N)N)NC(=O)[C@@H](CNC(=O)c1ccc([Si](F)(C(C)(C)C)C(C)(C)C)cc1)NC(=O)CC[C@H](C(=O)O)N1CCN(CC(=O)O)CCN(CC(=O)O)CCN(CC(=O)O)CC1)C(=O)Nc1ccc(C(=O)NCCC[C@@H]2C(=O)N[C@@H](CCCNC(=N)N)C(=O)N[C@@H](Cc3ccc4ccccc4c3)C(=O)NCC(=O)N[C@H](Cc3ccc(O)cc3)C(=O)N2C)cc1` [CXCR4-SiFA-1 [Lu]], in data set [1], the logD7.4 is given as 1.41 ± 0.04 (8).

Take `C[C@@H](NC(=O)[C@@H](CCCNC(=N)N)NC(=O)[C@@H](Cc1c[nH]cn1)NC(=O)[C@@H](CNC(=O)c1ccc([Si](F)(C(C)(C)C)C(C)(C)C)cc1)NC(=O)CC[C@H](C(=O)O)N1CCN(CC(=O)O)CCN(CC(=O)O)CCN(CC(=O)O)CC1)C(=O)Nc1ccc(C(=O)NCCC[C@@H]2C(=O)N[C@@H](CCCNC(=N)N)C(=O)N[C@@H](Cc3ccc4ccccc4c3)C(=O)NCC(=O)N[C@H](Cc3ccc(O)cc3)C(=O)N2C)cc1` [CXCR4-SiFA-2 [Ga]]: in data set [1], the logD7.4 is 0.39 ± 0.07 (8). Further, in data set [2] (30 min), the “Internalized in relation … [%]” value was found to be 500 ± 23.1%, the “Cell-bound [%]” value turned out to be 0.08 ± 0.23% and the “Internalized [%]” value was 12.5 ± 0.46%. For the same compound, in data set [2] (90 min), the “Internalization [% Fc-131]” value is given as 562 % Fc-131, the “Internalized in relation … [%]” value came to 562 ± 33.0%, the “Cell-bound [%]” value is recorded as 0.43 ± 0.26% and the “Internalized [%]” value is reported as 16.5 ± 0.94%.

On to `C[C@@H](NC(=O)[C@@H](CCCNC(=N)N)NC(=O)[C@@H](Cc1c[nH]cn1)NC(=O)[C@@H](CNC(=O)c1ccc([Si](F)(C(C)(C)C)C(C)(C)C)cc1)NC(=O)CC[C@H](C(=O)O)N1CCN(CC(=O)O)CCN(CC(=O)O)CCN(CC(=O)O)CC1)C(=O)Nc1ccc(C(=O)NCCC[C@@H]2C(=O)N[C@@H](CCCNC(=N)N)C(=O)N[C@@H](Cc3ccc4ccccc4c3)C(=O)NCC(=O)N[C@H](Cc3ccc(O)cc3)C(=O)N2C)cc1` [CXCR4-SiFA-2 [Lu]], for which the logD7.4 in data set [1] is recorded as 0.80 ± 0.04 (8).

With `C[C@@H](NC(=O)[C@@H](CCCNC(=N)N)NC(=O)[C@@H](CN)NC(=O)[C@@H](CNC(=O)c1ccc([Si](F)(C(C)(C)C)C(C)(C)C)cc1)NC(=O)[C@@H](CCCCNC(=O)CC[C@H](C(=O)O)N1CCN(CC(=O)O)CCN(CC(=O)O)CCN(CC(=O)O)CC1)NC(=O)CC[C@H](C(=O)O)N1CCN(CC(=O)O)CCN(CC(=O)O)CCN(CC(=O)O)CC1)C(=O)Nc1ccc(C(=O)NCCC[C@@H]2C(=O)N[C@@H](CCCNC(=N)N)C(=O)N[C@@H](Cc3ccc4ccccc4c3)C(=O)NCC(=O)N[C@H](Cc3ccc(O)cc3)C(=O)N2C)cc1` [CXCR4-SiFA-3 [Ga]] (I: X7-[dK](X7)[dDap](Benzoyl(4-SiFtBu2))[dDap][dR][dA][4Abz] / II: cyclo([dY][dNMeOrn]R[2Nal]G); amide I:C-II:2), the logD7.4 in data set [1] was −1.65 ± 0.09 (8).

Consider `C[C@@H](NC(=O)[C@@H](CCCNC(=N)N)NC(=O)[C@@H](CN)NC(=O)[C@@H](CNC(=O)CC[C@H](C(=O)O)N1CCN(CC(=O)O)CCN(CC(=O)O)CCN(CC(=O)O)CC1)NC(=O)[C@@H](CNC(=O)c1ccc([Si](F)(C(C)(C)C)C(C)(C)C)cc1)NC(=O)CC[C@@H](NC(=O)N[C@H](CCC(=O)O)C(=O)O)C(=O)O)C(=O)Nc1ccc(C(=O)NCCC[C@@H]2C(=O)N[C@@H](CCCNC(=N)N)C(=O)N[C@@H](Cc3ccc4ccccc4c3)C(=O)NCC(=O)N[C@H](Cc3ccc(O)cc3)C(=O)N2C)cc1` [CXCR4-SiFA-4 [Ga]] (I: {dE-CO-d(γGlu)}-[dDap](Benzoyl(4-SiFtBu2))[dDap](X7)[dDap][dR][dA][4Abz] / II: cyclo([dY][dNMeOrn]R[2Nal]G); amide I:C-II:2), for which the logD7.4 in data set [1] was −1.92 ± 0.06 (8). In data set [2] (30 min), the “Internalized in relation … [%]” value worked out at 56.6 ± 8.36%, the “Cell-bound [%]” value amounted to 0.10 ± 0.15% and the “Internalized [%]” value was determined as 1.36 ± 0.18%. In data set [2] (90 min), the “Internalization [% Fc-131]” value came to 58 % Fc-131, the “Internalized in relation … [%]” value came out at 57.7 ± 5.43%, the “Cell-bound [%]” value is reported as 0.37 ± 0.20% and the “Internalized [%]” value worked out at 1.80 ± 0.15%.
